Reference: patent publication US20250027072A1, “METHODS AND CO[…] TO ENGINEERED CANNABINOID RECEPTORS” (priority 2021, published 2025)
“And” between values parts separate entries of the source, which are not always exact repeats. Identical values can stand only once. “Also recorded” adds a separate entry of the source. Like-named read-outs stand apart in the source and are kept apart here.

Columns and labels:
Assay type in all cases: cell-based
[1] = molecular target: human cannabinoid receptor type II (CB2R) (Homo sapiens, UniProt P34972); experiment: cell-based; parameters: Normalized Activity at 1 μM, CB2R; other: PINACA compounds, 1 μM; Normalized Activity at 1 μm, CB2R; other: 5-fluoro PB-22 isomers, 1 μm; other: MFα-CB2R, ST03 sterol strain, pH 5.8; activity against CB2R; other: at 10 nM, dose response; preference at CB2R of ADB-BINACA over AB-PINACA; signaling at CB2R in synthetic cannabinoid screen; fused on or other part: yeast mating factor alpha (MFα) pre-pro leader fused at the N-terminus as a trafficking signal; conditions: for EC50: MFα-CB2R, ST03 sterol strain, pH 5.8, read-out: EC50 at CB2R, dose response; for Normalized Activity at 1 μM, CB2R: PINACA compounds; for signaling at CB2R in synthetic cannabinoid screen: compounds at 1 μM; for Normalized Activity at 1 μm, CB2R: 5-fluoro PB-22 isomers
human cannabinoid receptor type II (CB2R) (Homo sapiens, UniProt P34972), sequence (P34972 whole entry, the tested form may be a part): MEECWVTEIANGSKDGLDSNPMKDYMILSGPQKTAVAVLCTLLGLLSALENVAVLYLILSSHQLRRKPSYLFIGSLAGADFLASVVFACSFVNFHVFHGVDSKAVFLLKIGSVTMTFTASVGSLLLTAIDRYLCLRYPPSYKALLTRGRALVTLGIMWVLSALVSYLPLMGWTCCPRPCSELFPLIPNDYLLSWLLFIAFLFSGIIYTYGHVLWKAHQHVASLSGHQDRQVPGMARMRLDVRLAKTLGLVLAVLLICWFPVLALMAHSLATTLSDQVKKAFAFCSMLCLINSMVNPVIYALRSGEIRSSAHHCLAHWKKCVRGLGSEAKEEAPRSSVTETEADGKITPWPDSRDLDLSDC
Protocol: (§1) To efficiently transduce signals from the human machinery to the yeast pathway, the yeast 5 C-terminal residues of the G-alpha gene GPA1 were replaced with the sequence of the Gαi3 human G-alpha variant as previously described (Brown et al. 2000). ZsGreen1 was used to report on the activity of the pathway, integrating it into the genome in place of the pheromone-inducible Fig1 gene (FIG. 14A).
(§2) Yeast colonies were picked and grown overnight to saturation in pH 5.8 SD-His media in a 2.2 mL deep well plate (Axygen) grown in a plate-shaking incubator (30° C., 1000 rpm, 3 mm orbital). In the morning cultures were diluted 1:10 or 1:25 in SD-His media buffered to pH 7.1 with 100 mM MOPSO (unless otherwise specified). Ligands were added to the culture and incubated with shaking for 8 hours. Cells were then washed three times with ice-cold Tris buffer (pH 7) and diluted 1:20 for cytometry. All cytometry was performed on a Sony SA3800 spectral analyzer. Each sample was tested for 10,000 events, and read at a rate of 1,000 events per second. All assays as reported here were filtered only for singlet populations.

[2] = molecular target: T1, human Cannabinoid Receptor 1 (CB1R) (Homo sapiens, UniProt P21554); conditions: for Normalized Activity at 1 μM, CB1R: PINACA compounds; for EC50: read-out: EC50 at CB1R, synthetic cannabinoid dose response; for signaling at CB1R in terpene screen: terpenes at 100 μM, normalized to 100 μM ACEA; for maximal signaling in CB1R dose response: dose-response curves; for Normalized Activity at 1 μm, CB1R: 5-fluoro PB-22 isomers
T1 construct: syn-prepro (synthetic yeast pre-pro secretion leader) (N); expressed in transfected cells; host or cells: Saccharomyces cerevisiae BY4741-derived strain (ste2, sst2, far1 knocked out); Gpa1-Gαi3 chimera

[3] = tested on: human cannabinoid receptor type II (CB2R); experiment: cell-based
Protocol: as §1, §2

[4] = tested on: human Cannabinoid Receptor 1 (CB1R)
[5] = syn-prepro-Δ89-CB1R, wild type ergosterol strain

COCCn1c(C)c(C)s/c1=N\C(=O)C1C(C)(C)C1(C)C [A-836339, 2,2,3,3-Tetramethyl-cyclopropanecarboxylic Acid [3-(2-Methoxy-ethyl)-4,5-dimethyl-3H-thiazol-(2Z)-ylidene]-amide] was tested, and the EC50 [1] was 16.3 nM.
CCCCCn1nc(C(=O)N[C@H](C(N)=O)[C@@H](C)CC)c2ccccc21 (single isomer, unassigned) was tested, and the “Normalized Activity at 1 μM, CB1R” value [2] was 0.753 and the “Normalized Activity at 1 μM, CB2R” value [1] was 0.568.
In the case of CCC(F)CCn1cc(C(=O)C2C(C)(C)C2(C)C)c2ccccc21 (single isomer, unassigned) [XLR11 N-(3-fluoropentyl) isomer], the “receptor bias CB2R versus CB1R” value ([3]; dual biosensor screen at 1 μM) is reported as “CB2R-biased”.
O=C(Oc1cccc2cnccc12)c1cn(CCCCCF)c2ccccc12 [5-fluoro PB-22 5-hydroxyisoquinoline isomer] was tested, and the “fold by which CB2 is favored over CB1” value ([3]; normalized activity at 1 μM, Table 3) was “roughly 2 fold” and the EC50 [1] was 216 nM.
In the case of CCCCCCC(C)(C)c1cc(O)c2c(c1)OC(C)(C)[C@H]1CC=C(CO)C[C@H]21 [HU-211], the “signaling at CB1R in synthetic cannabinoid screen relative to 100 μM ACEA positive control” value [2] is reported as “at most approximately half the relative fluorescence of the ACEA positive control”.
With CCCCCn1nc(C(=O)NC(C(N)=O)C(C)(C)C)c2ccccc21 (stereo not drawn) [ADB-PINACA] the “relative fluorescence of the ACEA positive control at CB1R” value ([2]; compounds at 10 nM, 100 μM ACEA control) was “strong signaling”, the “signaling at CB1R in synthetic cannabinoid screen relative to 100 μM ACEA positive control” value ([2]; compounds at 1 μM) was “maximal fluorescence” and the “EC50 at CB1R, synthetic cannabinoid dose response” value [2, 5] was “low nanomolar range”. For the same molecule, the EC50 [2, 5] was 0.09 nM and the “signaling at CB2R in synthetic cannabinoid screen” value [1] was “high activity”.
With CCCC(F)Cn1nc(C(=O)NC(C(N)=O)C(C)C)c2ccccc21 (stereo not drawn) the “Normalized Activity at 1 μM, CB1R” value [2] was 0.632 and the “Normalized Activity at 1 μM, CB2R” value [1] was 0.340.
For CCN(CC)CCN1C(=O)CN=C(c2ccccc2F)c2cc(Cl)ccc21 [Flurazepam], the “signaling at CB1R in synthetic cannabinoid screen relative to 100 μM ACEA positive control” value ([2]; compounds at 1 μM) was “did not show strong signal; also recorded: does not strongly activate the CB1R”.
With C=C1CCC[C@]2(C)CC[C@@H](C(C)(C)O)C[C@@H]12 [β-Eudesmol] the “signaling at CB1R at lower concentration” value ([2]; 10 μM, dose response) was “showed signaling” and the “signaling at CB1R in terpene screen” value [2] was “activate CB1R”.
With CC(C)[C@H](NC(=O)c1cn(CC2CCCCC2)c2ccccc12)C(N)=O [AB-CHMICA] the “signaling at CB1R in synthetic cannabinoid screen relative to 100 μM ACEA positive control” value ([2]; compounds at 1 μM) was “CB1R agonists” and the “signaling at CB2R in synthetic cannabinoid screen” value [1] was “poor CB2R signalers”.
With CCC(C(N)=O)N(C)C(=O)c1nn(Cc2ccc(F)cc2)c2ccccc12 (single isomer, unassigned; isomer 5) [AB-FUBINACA isomer 5] the “signaling at CB1R in synthetic cannabinoid screen relative to 100 μM ACEA positive control” value ([2]; compounds at 1 μM) was “least GPCR activation”, the “maximal signaling in CB1R dose response” value [2] was “lower response” and the EC50 [2, 5] was 15.9 nM.
Cc1c(C(=O)c2ccccc2)c(N)c(-c2ccccc2)n1Cc1ccc(Cl)cc1 [URB447] was tested, and the “signaling at CB1R in synthetic cannabinoid screen relative to 100 μM ACEA positive control” value ([2]; compounds at 1 μM) was “at most approximately half the relative fluorescence of the ACEA positive control”.
For O=C(Oc1ccc2ncccc2c1)c1cn(CCCCCF)c2ccccc12, the “Normalized Activity at 1 μm, CB1R” value [2] was 0.500 and the “Normalized Activity at 1 μm, CB2R” value [1] was 0.141.
With CCC(F)CCn1nc(C(=O)NC(C(N)=O)C(C)C)c2ccccc21 (stereo not drawn) the “Normalized Activity at 1 μM, CB1R” value [2] was 0.700 and the “Normalized Activity at 1 μM, CB2R” value [1] was 0.310.
In the case of CCC(C)(NC(=O)c1nn(Cc2ccc(F)cc2)c2ccccc12)C(N)=O (single isomer, unassigned; isomer 2) [AB-FUBINACA isomer 2], the “maximal signaling in CB1R dose response” value [2] is reported as “lower response” and the EC50 [2, 5] is reported as 0.23 nM.
For CCCCCn1c(O)c(N=NC(=O)c2ccccc2)c2ccc(OC)cc21 [MDA 77], the “signaling at CB1R in synthetic cannabinoid screen relative to 100 μM ACEA positive control” value ([2]; compounds at 1 μM) was “at most approximately half the relative fluorescence of the ACEA positive control”.
O=C(Oc1ccc2cccnc2c1)c1cn(CCCCCF)c2ccccc12 was tested, and the “Normalized Activity at 1 μm, CB1R” value [2] was 0.550.
With O=C(Oc1ccc2ccncc2c1)c1cn(CCCCCF)c2ccccc12 the “Normalized Activity at 1 μm, CB2R” value [1] was 0.339.
With O=C(Oc1cncc2ccccc12)c1cn(CCCCCF)c2ccccc12 the “Normalized Activity at 1 μm, CB1R” value [2] was 0.570.
In the case of CC(C)=CCCC(C)CCO (stereo not drawn) [(+)-β-Citronellol], the “signaling at CB1R in terpene screen” value [2] is reported as “activate CB1R”.
CCCCC/C=C\C/C=C\C/C=C\C/C=C\CCCC(=O)NCCCl [ACEA] was tested, and the “EC50, dose response with CB1R” value [2] was “low μM range” and the “drop in sensitivity of Δ89 constructs compared to full-length counterparts” value [4] was 3.6-3.8 fold and 3.8 fold.
